System: C57bl/6 bone marrow derived macrophages
Experiment: LPS-induced TNFα and IL-6 in C57bl/6 BMDM with controls
Format: cell-based
Conditions: C57bl/6 BMDM re-stimulated with 1 ng/ml LPS ± 25 μg/ml nanoparticles or controls
Protocol: FIG. 9 illustrates reduction of TNFα and IL-6 production from C57bl/6 bone marrow derived macrophages (BMDM) incubated with LPS and α2,8 sialic acid conjugated PLGA nanoparticles. The BMDM were stimulated with 1 ng/ml LPS overnight to up-regulate Siglec-E. Cells were washed twice in serum-free DMEM prior to resting for 2 hr. Cells were re-stimulated with 1 ng/ml LPS±α2,8 sialic acid conjugated PLGA nanoparticles (NP) or appropriate controls—Unconjugated (nude) NP, Sialic acid washed, but unconjugated NP, Sialic acid at same concentration as NP or nanoparticles conjugated to the non-Siglec binding glucosamine. TNFα and IL-6 was measured by ELISA. One way ANOVA was used to determine significance.
4×10^4/well C57bl/6 bone marrow derived macrophages were stimulated with 1 ng/ml LPS overnight to up-regulate Siglec-E. Cells were washed twice in serum-free DMEM prior to resting for 2 hr. The results of cells re-stimulated with 1 ng/ml LPS±α2,8 sialic acid conjugated PLGA nanoparticles (NP) or appropriate controls—Unconjugated (nude) nanoparticles, Sialic acid washed—but unconjugated nanoparticles, Sialic acid at same concentration as nanoparticles or nanoparticles conjugated to the non-Siglec binding glucosamine are shown. TNFα and IL-6 was measured by ELISA. One way ANOVA with post-hoc Tukey test was used to determine significance. P=0.001.

Question: With “alpha 2-8 diacetylneuraminic acid [sialic acid]” as the substance, how does the “IL-6 (ELISA)” value read?
Answer: insufficient to cause the effect observed

Question: What about the “TNFα (ELISA)” value of the same substance?
Answer: insufficient to cause the effect observed

Source: patent US8962032B2, “Modulator” (The Queen's University of Belfast, priority 2009, dated 2015)
